The numbers were not newly measured in patent publication US20040180006A1, “Methods and compositions for blocking the calcium cascade” (priority 2003, published 2004), which cites them from elsewhere.

Data set [1] relates to mast cell plasma membrane potential. Conditions: for effect on second (delayed) decrease of bis-oxonol fluorescence: induced by compound 48/80 or antigenic stimulation.
The test system of data set [2] is rat peritoneal mast cells.
For another data set, the system named is guinea pig trachea. Conditions: 10^-4 to 10^-3 M.
Data set [3] has as its system rat basophilic leukemia cells (RBL 2H3). Conditions: RBL 2H3 cells stimulated by immunoglobulin E-antigen; read-out: concentration required to inhibit histamine secretion from RBL 2H3 cells, immunoglobulin E-antigen.

pIC50: −log10 of the molar value. Where two headings read alike, the source gives them in different places.

`C[C@@H]1O[C@@H](O[C@H]2C[C@@H](O)[C@]3(CO)[C@H]4[C@H](O)C[C@]5(C)[C@@H](C6=CC(=O)OC6)CC[C@]5(O)[C@@H]4CC[C@]3(O)C2)[C@H](O)[C@H](O)[C@H]1O` [ouabain]: in data set [1], the “effect on second (delayed) decrease of bis-oxonol fluorescence” value is “inhibited”.
In the case of zinc gluconate, the pIC50 is 4.74 in data set [2] (peritoneal cells stimulated by imunoglobulin E-antigen, read-out: IC50 of histamine secretion, imunoglobulin E-antigen); 5.80 in data set [2] (peritoneal cells stimulated by ionophore A23187, read-out: IC50 of histamine secretion, ionophore A23187); 5.72 in data set [2] (peritoneal cells stimulated by phorbol 12-myristate 13-acetate, read-out: IC50 of histamine secretion, phorbol 12-myristate 13-acetate); 5.27 in data set [2] (peritoneal cells stimulated by substance P, read-out: IC50 of histamine secretion, substance P); 3.85 in data set [3]. In the data set with guinea pig trachea, the “IgE-dependent contraction of guinea pig trachea” value is on record as “inhibited”. The “contraction of guinea pig trachea induced by endogenous histamine” value in the data set on guinea pig trachea is “unable to affect”. In addition, the “effect on first (fast) decrease of bis-oxonol fluorescence” value in data set [1] (induced by compound 48/80) is listed as “inhibited”. The “effect on second (delayed) decrease of bis-oxonol fluorescence” value in data set [1] is reported as “did not alter”.
